Data taken from patent publication US12415803B2, “Fused imidazopyridines as reversible inhibitors of Brutons Tyrosine Kinase (BTK)” (Merck Patent GmbH, priority 2018, dated 2025).

Columns and labels:
[1] = molecular target: full-length human BTK (Homo sapiens (Human), UniProt Q06187); assay: BTK IC50 Enzyme Assay (microfluidic off-chip mobility shift kinase assay); type: biochemical; details: Btk Enzymatic IC50 Assay, 90 min at 27 C;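 also: Read-out separates phosphorylated peptide product from substrate by their charge-to-mass difference, with IC50 fitted from log inhibitor concentration against percent enzyme activity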
full-length human BTK, sequence (Q06187 whole entry): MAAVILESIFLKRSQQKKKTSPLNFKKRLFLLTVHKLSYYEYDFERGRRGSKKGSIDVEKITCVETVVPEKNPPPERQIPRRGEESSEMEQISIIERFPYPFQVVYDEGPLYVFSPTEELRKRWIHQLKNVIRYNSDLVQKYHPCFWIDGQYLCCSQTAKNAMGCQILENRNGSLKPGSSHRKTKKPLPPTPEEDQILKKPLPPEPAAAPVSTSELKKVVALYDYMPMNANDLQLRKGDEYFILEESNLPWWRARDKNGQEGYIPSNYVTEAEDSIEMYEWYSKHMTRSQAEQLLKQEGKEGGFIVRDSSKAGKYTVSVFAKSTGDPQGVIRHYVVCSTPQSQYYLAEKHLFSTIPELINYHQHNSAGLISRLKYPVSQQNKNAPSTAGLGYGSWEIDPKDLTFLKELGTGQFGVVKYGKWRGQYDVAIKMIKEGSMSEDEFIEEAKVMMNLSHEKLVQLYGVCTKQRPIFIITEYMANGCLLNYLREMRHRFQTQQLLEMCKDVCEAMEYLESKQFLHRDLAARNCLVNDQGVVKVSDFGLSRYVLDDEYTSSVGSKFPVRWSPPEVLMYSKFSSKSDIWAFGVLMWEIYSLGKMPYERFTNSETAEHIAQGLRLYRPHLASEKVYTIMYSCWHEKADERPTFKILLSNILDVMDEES

[2] = molecular target: Btk (Homo sapiens (Human), UniProt Q06187); assay: Btk PBMC IC50 Cell Assay (anti-IgM-induced CD69 expression on B cells); type: cell-based; details: anti-IgM-induced CD69 expression on CD19 positive cells in human PBMCs;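 also: freshly isolated human PBMCs, IC50 from concentration-response of the share of CD19+ cells expressing CD69 after anti-IgM BCR stimulation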
Btk, sequence (Q06187 whole entry): as above

| IC50 [1] [nM] | IC50 [2] [nM] | Structure (SMILES) |
| --- | --- | --- |
| < 1 | 1 to 10 | Cn1cc(-c2nc3c(-c4ccc5c(c4)OCCCC5NC(=O)c4noc(C(C)(C)C)n4)ccnc3[nH]2)cn1 (stereo not shown) [Compound 37, 5-tert-Butyl-[1,2,4]oxadiazole-3-carboxylic acid {8-[2-(1-methyl-1H-pyrazol-4-yl)-3H-imidazo[4,5-b]pyridin-7-yl]-2,3,4,5-tetrahydro-benzo[b]oxepin-5-yl}-amide] |
| < 1 | 1 to 10 | Cn1cc(-c2nc3c(-c4ccc5c(c4)OCCCC5NC(=O)c4nc(C(C)(C)C)no4)ccnc3[nH]2)cn1 (stereo not shown) [Compound 38, 3-tert-Butyl-[1,2,4]oxadiazole-5-carboxylic acid {8-[2-(1-methyl-1H-pyrazol-4-yl)-3H-imidazo[4,5-b]pyridin-7-yl]-2,3,4,5-tetrahydro-benzo[b]oxepin-5-yl}-amide] |
| < 1 | < 1 | Cn1cc(-c2nc3c(-c4ccc5c(c4)CCCCC5NC(=O)c4noc(C(C)(C)C)n4)ccnc3[nH]2)cn1 (stereo not shown) [Compound 39, 5-tert-Butyl-[1,2,4]oxadiazole-3-carboxylic acid {2-[2-(1-methyl-1H-pyrazol-4-yl)-3H-imidazo[4,5-b]pyridin-7-yl]-6,7,8,9-tetrahydro-5H-benzocyclohepten-5-yl}-amide] |
| < 1 | 1 to 10 | Cn1cc(-c2nc3c(-c4ccc5c(c4)CCCCC5NC(=O)c4noc(C5(C)CC5)n4)ccnc3[nH]2)cn1 (stereo not shown) [Compound 40, 5-(1-Methyl-cyclopropyl)-[1,2,4]oxadiazole-3-carboxylic acid {2-[2-(1-methyl-1H-pyrazol-4-yl)-3H-imidazo[4,5-b]pyridin-7-yl]-6,7,8,9-tetrahydro-5H-benzocyclohepten-5-yl}-amide] |
| < 1 | 1 to 10 | Cn1cc(-c2nc3c(-c4ccc5c(c4)CCCCC5NC(=O)c4cc(C5(C)CC5)on4)ccnc3[nH]2)cn1 (stereo not shown) [Compound 41, 5-(1-Methyl-cyclopropyl)-isoxazole-3-carboxylic acid {2-[2-(1-methyl-1H-pyrazol-4-yl)-3H-imidazo[4,5-b]pyridin-7-yl]-6,7,8,9-tetrahydro-5H-benzocyclohepten-5-yl}-amide] |
| < 1 | 1 to 10 | Cn1cc(-c2nc3c(-c4ccc5c(c4)CCCCC5NC(=O)c4nnc(C(C)(C)C)o4)ccnc3[nH]2)cn1 (stereo not shown) [Compound 42, 5-tert-Butyl-[1,3,4]oxadiazole-2-carboxylic acid {2-[2-(1-methyl-1H-pyrazol-4-yl)-3H-imidazo[4,5-b]pyridin-7-yl]-6,7,8,9-tetrahydro-5H-benzocyclohepten-5-yl}-amide] |
| 1 to 10 | 10 to 100 | Cn1cc(-c2nc3c(-c4ccc5c(c4)OCCC[C@H]5NC(=O)c4nc(C(C)(C)C)no4)ccnc3[nH]2)cn1 [Compound 44, 3-tert-Butyl-[1,2,4]oxadiazole-5-carboxylic acid {(R)-8-[2-(1-methyl-1H-pyrazol-4-yl)-3H-imidazo[4,5-b]pyridin-7-yl]-2,3,4,5-tetrahydro-benzo[b]oxepin-5-yl}-amide] |
| < 1 | 1 to 10 | Cn1cc(-c2nc3c(-c4ccc5c(c4)OCCC[C@@H]5NC(=O)c4nc(C(C)(C)C)no4)ccnc3[nH]2)cn1 [Compound 45, 3-tert-Butyl-[1,2,4]oxadiazole-5-carboxylic acid {(S)-8-[2-(1-methyl-1H-pyrazol-4-yl)-3H-imidazo[4,5-b]pyridin-7-yl]-2,3,4,5-tetrahydro-benzo[b]oxepin-5-yl}-amide] |
| < 1 | 1 to 10 | Cn1cc(-c2nc3c(-c4ccc5c(c4)OCCC[C@H]5NC(=O)c4noc(C(C)(C)C)n4)ccnc3[nH]2)cn1 [Compound 46, 5-tert-Butyl-[1,2,4]oxadiazole-3-carboxylic acid {(R)-8-[2-(1-methyl-1H-pyrazol-4-yl)-3H-imidazo[4,5-b]pyridin-7-yl]-2,3,4,5-tetrahydro-benzo[b]oxepin-5-yl}-amide] |
| 1 to 10 | 10 to 100 | Cn1cc(-c2nc3c(-c4ccc5c(c4)OCCC[C@@H]5NC(=O)c4noc(C(C)(C)C)n4)ccnc3[nH]2)cn1 [Compound 47, 5-tert-Butyl-[1,2,4]oxadiazole-3-carboxylic acid {(S)-8-[2-(1-methyl-1H-pyrazol-4-yl)-3H-imidazo[4,5-b]pyridin-7-yl]-2,3,4,5-tetrahydro-benzo[b]oxepin-5-yl}-amide] |
| 1 to 10 | > 100 | Cn1cc(-c2nc3c(-c4ccc5c(c4)CCCC[C@H]5NC(=O)c4nnc(C(C)(C)C)o4)ccnc3[nH]2)cn1 [Compound 48, 5-tert-Butyl-[1,3,4]oxadiazole-2-carboxylic acid {(R)-2-[2-(1-methyl-1H-pyrazol-4-yl)-3H-imidazo[4,5-b]pyridin-7-yl]-6,7,8,9-tetrahydro-5H-benzocyclohepten-5-yl}-amide] |
| < 1 | 1 to 10 | Cn1cc(-c2nc3c(-c4ccc5c(c4)CCCC[C@@H]5NC(=O)c4nnc(C(C)(C)C)o4)ccnc3[nH]2)cn1 [Compound 49, 5-tert-Butyl-[1,3,4]oxadiazole-2-carboxylic acid {(S)-2-[2-(1-methyl-1H-pyrazol-4-yl)-3H-imidazo[4,5-b]pyridin-7-yl]-6,7,8,9-tetrahydro-5H-benzocyclohepten-5-yl}-amide] |
| < 1 | 1 to 10 | Cn1cc(-c2nc3c(-c4ccc5c(c4)CCCC[C@H]5NC(=O)c4noc(C(C)(C)C)n4)ccnc3[nH]2)cn1 [Compound 52, 5-tert-Butyl-[1,2,4]oxadiazole-3-carboxylic acid {(R)-2-[2-(1-methyl-1H-pyrazol-4-yl)-3H-imidazo[4,5-b]pyridin-7-yl]-6,7,8,9-tetrahydro-5H-benzocyclohepten-5-yl}-amide] |
| 1 to 10 | 10 to 100 | Cn1cc(-c2nc3c(-c4ccc5c(c4)CCCC[C@@H]5NC(=O)c4noc(C(C)(C)C)n4)ccnc3[nH]2)cn1 [Compound 53, 5-tert-Butyl-[1,2,4]oxadiazole-3-carboxylic acid {(S)-2-[2-(1-methyl-1H-pyrazol-4-yl)-3H-imidazo[4,5-b]pyridin-7-yl]-6,7,8,9-tetrahydro-5H-benzocyclohepten-5-yl}-amid] |
| < 1 | 1 to 10 | Cn1cc(-c2nc3c(-c4ccc5c(c4)CCCC[C@H]5NC(=O)c4noc(C5(C)CC5)n4)ccnc3[nH]2)cn1 [Compound 54, 5-(1-Methyl-cyclopropyl)-[1,2,4]oxadiazole-3-carboxylic acid {(R)-2-[2-(1-methyl-1H-pyrazol-4-yl)-3H-imidazo[4,5-b]pyridin-7-yl]-6,7,8,9-tetrahydro-5H-benzocyclohepten-5-yl}-amide] |
| 1 to 10 | 10 to 100 | Cn1cc(-c2nc3c(-c4ccc5c(c4)CCCC[C@@H]5NC(=O)c4noc(C5(C)CC5)n4)ccnc3[nH]2)cn1 [Compound 55, 5-(1-Methyl-cyclopropyl)-[1,2,4]oxadiazole-3-carboxylic acid {(S)-2-[2-(1-methyl-1H-pyrazol-4-yl)-3H-imidazo[4,5-b]pyridin-7-yl]-6,7,8,9-tetrahydro-5H-benzocyclohepten-5-yl}-amide] |
| 1 to 10 | > 100 | Cn1cc(-c2nc3c(-c4ccc5c(c4)CCCC[C@@H]5NC(=O)c4cc(C5(C)CC5)on4)ccnc3[nH]2)cn1 [Compound 57, 5-(1-Methyl-cyclopropyl)-isoxazole-3-carboxylic acid {(S)-2-[2-(1-methyl-1H-pyrazol-4-yl)-3H-imidazo[4,5-b]pyridin-7-yl]-6,7,8,9-tetrahydro-5H-benzocyclohepten-5-yl}-amide] |
| < 1 | 1 to 10 | Cc1nn(C(C)C)cc1-c1nc2c(-c3ccc4c(c3)CCCCC4NC(=O)c3noc(C(C)(C)C)n3)ccnc2[nH]1 (stereo not shown) [Compound 58, 5-tert-Butyl-[1,2,4]oxadiazole-3-carboxylic acid {2-[2-(1-isopropyl-3-methyl-1H-pyrazol-4-yl)-3H-imidazo[4,5-b]pyridin-7-yl]-6,7,8,9-tetrahydro-5H-benzocyclohepten-5-yl}-amide] |
| < 1 | 1 to 10 | Cc1nn(C(C)C)cc1-c1nc2c(-c3ccc4c(c3)CCCC[C@H]4NC(=O)c3nc(C4(C)CC4)no3)ccnc2[nH]1 [Compound 59, 3-(1-Methyl-cyclopropyl)-[1,2,4]oxadiazole-5-carboxylic acid {(R)-2-[2-(1-isopropyl-3-methyl-1H-pyrazol-4-yl)-3H-imidazo[4,5-b]pyridin-7-yl]-6,7,8,9-tetrahydro-5H-benzocyclohepten-5-yl}-amide] |
| 1 to 10 | 10 to 100 | Cc1nn(C(C)C)cc1-c1nc2c(-c3ccc4c(c3)CCCC[C@@H]4NC(=O)c3nc(C4(C)CC4)no3)ccnc2[nH]1 [Compound 60, 3-(1-Methyl-cyclopropyl)-[1,2,4]oxadiazole-5-carboxylic acid {(S)-2-[2-(1-isopropyl-3-methyl-1H-pyrazol-4-yl)-3H-imidazo[4,5-b]pyridin-7-yl]-6,7,8,9-tetrahydro-5H-benzocyclohepten-5-yl}-amide] |

| Structure (SMILES) | IC50 [1] [nM] | IC50 [2] [nM] |
| --- | --- | --- |
| Cn1cc(-c2nc3c(-c4ccc5c(c4)CCCCC5NC(=O)N4CC(OC(C)(C)C)C4)ccnc3[nH]2)cn1 (stereo not shown) [Compound 43, 3-tert-Butoxy-azetidine-1-carboxylic acid {2-[2-(1-methyl-1H-pyrazol-4-yl)-3H-imidazo[4,5-b]pyridin-7-yl]-6,7,8,9-tetrahydro-5H-benzocyclohepten-5-yl}-amide] | < 1 | 1 to 10 |
| Cn1cc(-c2nc3nccc(-c4ccc5c(c4)CCCC[C@H]5NC(=O)N4CC(OC(C)(C)C)C4)c3[nH]2)cn1 [Compound 50, 3-tert-Butoxy-azetidine-1-carboxylic acid {(R)-2-[2-(1-methyl-1H-pyrazol-4-yl)-3H-imidazo[4,5-b]pyridin-7-yl]-6,7,8,9-tetrahydro-5H-benzocyclohepten-5-yl}-amide] | 1 to 10 | > 100 |
| Cn1cc(-c2nc3nccc(-c4ccc5c(c4)CCCC[C@H]5NC(=O)N4CC(OC(C)(C)C)C4)c3[nH]2)cn1 [Compound 51, 3-tert-Butoxy-azetidine-1-carboxylic acid {(R)-2-[2-(1-methyl-1H-pyrazol-4-yl)-3H-imidazo[4,5-b]pyridin-7-yl]-6,7,8,9-tetrahydro-5H-benzocyclohepten-5-yl}-amide] | < 1 | 1 to 10 |
